# Experiments:
# [1] = ingestion of 250 μg/day as a dietary supplement; cited from earlier work
# [2] = in vivo; cited from earlier work
# [3] = considered; no test described; cited from earlier work
# [4] = Clinical trial: 25(OH)D levels after oral supplementation; conditions: female, human, in vivo
# Experimental: The objective was studying and comparing the pharmacokinetic characteristics of vitamin D3 and 25-hydroxyvitamin D3 administered to humans. Equimolar quantities of both substances were investigated. The regimen was based on 20 μg/day (or its equivalent on a weekly basis) of 25-hydroxyvitamin D3. For comparative purposes, it was necessary to administer equimolar quantities of either vitamin D3 or 25-hydroxyvitamin D3. In respect to administration of vitamin D3, the dose was considered to be sufficient to overcome background variability and provide and efficacious dose to the participants. […]
# Plasma concentrations of 25-hydroxyvitamin D3 (e.g., peak and steady state) were determined by obtaining samples from the subjects at various times after the dosage was ingested. For screening purposes and to establish baseline values, a blood sample was obtained prior to enrollment into the study and the clinical laboratory measured vitamin D3, 25-hydroxyvitamin D3, calcium, creatinine, albumin, and fasting glucose in the serum. […]
# Twenty healthy postmenopausal women with 25-Hydroxyvitamin D3 levels below 25 ng/ml and a mean age of 61.5 years (SD ±7.2) were enrolled in this study. […] On 14 visits over 4 months, 25(OH)D levels, and 7 inflammation markers (eotaxin, IL-8, IL-12, IP-10, MCP-1, MP-1β, RANTES) were measured. […]
compound,measurement,setting,value
Vitamin D,blood concentration of 25-hydroxyvitamin D,[1],about 200 nmol/L
25-hydroxyvitamin D,blood concentration at which hypercalcemia may occur,[2],greater than 375 nmol/L
"C=C1CC[C@H](O)C/C1=C/C=C1\CCC[C@]2(C)[C@@H]([C@H](C)CCCC(C)(C)O)CC[C@@H]12 [25-Hydroxyvitamin D3, 25-hydroxyvitamin D3]",activity relative to Vitamin D3,[3],approximately 3 ×
"C=C1CC[C@H](O)C/C1=C/C=C1\CCC[C@]2(C)[C@@H]([C@H](C)CCCC(C)C)CC[C@@H]12 [Vitamin D3, cholecalciferol]",Mean 25(OH)D levels,[4],13.5 ng/mL

# Reference: patent US10357501B2, “Treating conditions associated with increased eotaxin with 25-hydroxyvitamin D3” (DSM IP ASSETS B.V., priority 2010, dated 2019)
